From PubChem BioAssay AID720642 (The Scripps Research Institute Molecular Screening Center, 2013)
Active and inactive are the calls of the source.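 The calls were made as follows: active = EC50 activation potency at or below 10 µM in this mu opioid counterscreen; inactive = EC50 above 10 µM or never reaching half activation.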

Target: Mu-type opioid receptor (Homo sapiens) (UniProt P35372)
Experiment: mu opioid receptor activation potency – cell-based, luminescence, dose response, powder samples, counter-screen for mouse HTR2A agonist project, late-stage follow-up (AID 720642)
Conditions: U2OS OPRM1 beta-arrestin complementation

Sequence of Mu-type opioid receptor (Homo sapiens) (P35372 whole entry, looked up): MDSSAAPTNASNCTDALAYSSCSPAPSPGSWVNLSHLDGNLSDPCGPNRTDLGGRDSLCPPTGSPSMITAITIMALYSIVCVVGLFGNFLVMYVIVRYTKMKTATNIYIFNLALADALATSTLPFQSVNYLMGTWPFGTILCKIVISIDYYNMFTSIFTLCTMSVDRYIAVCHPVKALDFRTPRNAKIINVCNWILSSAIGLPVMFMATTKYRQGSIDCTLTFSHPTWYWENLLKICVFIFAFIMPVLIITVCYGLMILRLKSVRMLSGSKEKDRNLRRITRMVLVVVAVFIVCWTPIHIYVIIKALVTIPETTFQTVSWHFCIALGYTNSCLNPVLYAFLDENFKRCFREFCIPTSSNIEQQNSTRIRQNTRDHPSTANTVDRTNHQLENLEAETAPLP

Row | SMILES | EC50
1 | NC1CCc2cc(O)c(O)cc2C1 (centres undefined) | > 92.5 µM (inactive)
2 | Clc1ccc(CN2CCN(c3ncccn3)CC2)cc1Cl | > 92.5 µM (inactive)
3 | CCOc1ccc(NC(=O)CCN2CCN(c3ccccc3F)CC2)cc1 | > 92.5 µM (inactive)
4 | CCCN1C[C@H](CSC)C[C@@H]2c3cccc4[nH]cc(c34)C[C@H]21 | > 92.5 µM (inactive)
5 | Fc1cccc(CN2CCN(c3ncccn3)CC2)c1 | > 92.5 µM (inactive)
6 | c1ccc(COc2ccc(CN3CCN(c4ccccn4)CC3)cc2)cc1 | > 92.5 µM (inactive)
7 | CC1CC(C)CN(CCOc2cccc(Cl)c2Cl)C1 (centres undefined) | > 92.5 µM (inactive)
8 | Clc1ccccc1CN1CCN(c2ncccn2)CC1 | > 92.5 µM (inactive)
9 | COc1cccc(OCC(O)CN2CCN(c3ccccn3)CC2)c1 (centres undefined) | > 92.5 µM (inactive)
10 | Clc1ccc(CN2CCN(c3ncccn3)CC2)cc1 | > 92.5 µM (inactive)
11 | CCOc1cc(CN2CCN(C(=O)c3ccco3)CC2)ccc1OC | > 92.5 µM (inactive)
12 | CC(=O)N1CCC(N2CCN(c3ccccc3F)CC2)CC1 | > 92.5 µM (inactive)
13 | CC(C)C[C@H]1C(=O)N2CCC[C@H]2[C@]2(O)O[C@](NC(=O)[C@@H]3C=C4c5cccc6[nH]c(Br)c(c56)CC4N(C)C3)(C(C)C)C(=O)N12 (some centres undefined) | > 92.5 µM (inactive)
14 | CCOC(=O)N1CCN(Cc2ccc(OCC(O)CN3CCCCC3)cc2)CC1 (centres undefined) | > 92.5 µM (inactive)
15 | Cc1ccc(CN2CCN(c3ncccn3)CC2)c(C)c1 | > 92.5 µM (inactive)
16 | C=CCN1CCc2nc(N)sc2CC1 | > 92.5 µM (inactive)
17 | Cc1cccc(CN2CCN(c3ncccn3)CC2)c1 | > 92.5 µM (inactive)
18 | O=C(c1ccco1)N1CCN(Cc2ccc(Cl)cc2)CC1 | > 92.5 µM (inactive)
19 | CCOC(=O)C1CCN(Cc2cccc(Oc3ccc(Cl)cc3)c2)CC1 | > 92.5 µM (inactive)
20 | COc1cc(Br)cc(CN2CCN(c3ncccn3)CC2)c1O | > 92.5 µM (inactive)
21 | COc1ccc(CN2CCN(c3ccccn3)CC2)c(OC)c1 | > 92.5 µM (inactive)
22 | c1ccc(N2CCN(Cc3ccsc3)CC2)nc1 | > 92.5 µM (inactive)
23 | OCC1(Cc2cccc(C(F)(F)F)c2)CCN(Cc2cc3ccccc3o2)CC1 | > 92.5 µM (inactive)
24 | O=C(CN1CCN(c2ccccn2)CC1)Nc1ccc(Oc2ccccc2)cc1 | > 92.5 µM (inactive)
25 | Oc1ccc(CN2CCN(c3ncccn3)CC2)cc1 | > 92.5 µM (inactive)
26 | Cc1ccc(CN2CCN(c3ncccn3)CC2)o1 | > 92.5 µM (inactive)
27 | CC(=O)N1CCc2cc(C(=O)CN3CCN(c4cccc(Cl)c4)CC3)ccc21 | > 92.5 µM (inactive)

Row | SMILES | EC50
28 | COc1ccc(CN2CCN(c3ncccn3)CC2)c(C)c1C | > 92.5 µM (inactive)
29 | COc1ccc(CN2CCN(c3ncccn3)CC2)c(OC)c1 | > 92.5 µM (inactive)
30 | CCc1ccc(CN2CCN(C(=O)c3ccco3)CC2)cc1 | > 92.5 µM (inactive)
31 | CC1(C)C(C=C(Cl)Cl)C1C(=O)N1CCN(Cc2ccccc2)CC1 (centres undefined) | > 92.5 µM (inactive)
32 | COc1cc(CN2CCN(c3ncccn3)CC2)cc(OC)c1 | > 92.5 µM (inactive)
33 | CN(c1ccc(C(=O)N2CCN(Cc3ccccc3)CC2)cc1)S(=O)(=O)c1ccc(Cl)cc1 | > 92.5 µM (inactive)
34 | CC(CCc1ccc(O)cc1)NCCc1ccc(O)c(O)c1 (centres undefined) | > 92.5 µM (inactive)
35 | CC(COc1ccccc1)N1CCC(CO)(Cc2ccccc2)CC1 (centres undefined) | > 92.5 µM (inactive)
36 | Cc1cccc(CN2CCN(c3ccccn3)CC2)c1 | > 92.5 µM (inactive)
37 | COc1ccc(CC2(CO)CCN(Cc3cc4ccccc4o3)CC2)cc1 | > 92.5 µM (inactive)
38 | Fc1ccccc1CN1CCN(c2ncccn2)CC1 | > 92.5 µM (inactive)
39 | Cn1cc(C(F)(F)F)nc1-c1ccc(OCC(O)CNCCOc2ccc(O)c(C(N)=O)c2)cc1 (centres undefined) | > 92.5 µM (inactive)
40 | Cc1ccsc1CN1CCN(c2ccccn2)CC1 | > 92.5 µM (inactive)
41 | COc1cccc(-n2cc(CNCc3cn(C)nc3-c3ccccc3F)cn2)c1 | > 92.5 µM (inactive)
42 | CCCN(CCC)C1CCc2cccc(O)c2C1 (centres undefined) | > 92.5 µM (inactive)
43 | Brc1cccc(CN2CCN(c3ncccn3)CC2)c1 | > 92.5 µM (inactive)
44 | COc1ccccc1C(=O)NCCN1CCN(c2ccccc2)CC1 | > 92.5 µM (inactive)
45 | CCn1c(=O)cc(SCC(=O)NCCCN2CCN(c3ccccc3F)CC2)c2ccccc21 | > 92.5 µM (inactive)
46 | CCCN1CCC[C@H](c2cccc(O)c2)C1 | > 92.5 µM (inactive)
47 | Clc1ccccc1CN1CCN(c2ccccc2)CC1 | > 92.5 µM (inactive)
48 | c1ccc(CN2CCN(c3ncccn3)CC2)cc1 | > 92.5 µM (inactive)
49 | NC[C@@H]1O[C@H](C23CC4CC(CC(C4)C2)C3)Cc2c1ccc(O)c2O | > 92.5 µM (inactive)
50 | Cc1ccc(CN2CCN(c3ccccn3)CC2)s1 | > 92.5 µM (inactive)
51 | Fc1ccc(F)c(CN2CCN(c3ncccn3)CC2)c1 | > 92.5 µM (inactive)
52 | COc1ccc(CN2CCN(C(=O)c3ccco3)CC2)cc1OCc1ccccc1 | > 92.5 µM (inactive)
53 | OC(COc1ccc2cc(Br)ccc2c1)CN1CCN(c2ccccn2)CC1 (centres undefined) | > 92.5 µM (inactive)
54 | Brc1ccc(CN2CCN(c3ccccn3)CC2)s1 | > 92.5 µM (inactive)
